This note sets out measurements from US10844066B2, “2-amino-N-[7-methoxy-2, 3-dihydroimidazo-[1,2-c] quinazolin-5-yl] pyrimidine-5-carboxamides” (Bayer Pharma Aktiengesellschaft, priority 2016, dated 2020).

Assay [1] has as its target T1, human p110β subunit of PI3K (PI3Kβ) (Homo sapiens, UniProt P42338).
T1 construct: His6 (N); made in house; host or cells: S. frugiperda 9 (Sf9) insect cells
Nature of the assay: Solid-Phase Lipid Kinase p110β assay. Type of assay: biochemical. The following applies: recombinant truncated (ΔN 1-108) p110β, 7.5 ng/well; otherwise as PI3Kα assay. Here is the method:
To assess inhibition of PI3Kα by compounds, the Maxisorp™ plates were coated with 50 μL/well of a solution containing 50 μg/ml Ptdlns and 50 μg/ml PtdSer dissolved in chloroform:ethanol (3:7). The plates were subsequently air-dried by incubation for at least 2 hours in a fume hood. The reaction was set up by mixing 25 μL/well of assay buffer 2× (100 mM MOPSO/NaOH, 0.2 M NaCl, pH 7.0, 8 mM MgCl2, 2 mg/mL BSA (fatty acid-free)), and 7.5 ng/well PI3Kα in the lipid pre-coated plate. 10× test compounds were added in 2% DMSO. The reaction was started by adding 5 μL/well of a 40 μM ATP mix (final 10 μM ATP; 20 μCi/ml[γ^33P]ATP). After incubation at RT for 2 hours, the reaction was terminated by adding 5 μl/well stop solution (25 mM EDTA, pH 8.0). The plate was then washed twice with Tris-buffered saline (TBS, pH 7.4). Ultima Gold™ (PERKINELMER) scintillation mix was added at 25 μL/well.
(§1) The radioactivity incorporated into the immobilized PI substrate was determined with a BetaPlate Liquid Scintillation Counter (PerkinElmer).
(§2) The inhibition percent at each concentration of compound was calculated, and IC50 values were determined from the inhibition of curve.
A recombinant truncated form (ΔN 1-108) of the human p110β or […] subunit of PI3K with an N-terminal His6-Tag was expressed in S. frugiperda 9 insect cells. […]

Assay [2] deals with T2, human p110α subunit of PI3K (PI3Kα) (Homo sapiens, UniProt P42336).
T2 construct: His6 (N); made in house; host or cells: S. frugiperda 9 (Sf9) insect cells
T2 sequence (P42336 109-1068): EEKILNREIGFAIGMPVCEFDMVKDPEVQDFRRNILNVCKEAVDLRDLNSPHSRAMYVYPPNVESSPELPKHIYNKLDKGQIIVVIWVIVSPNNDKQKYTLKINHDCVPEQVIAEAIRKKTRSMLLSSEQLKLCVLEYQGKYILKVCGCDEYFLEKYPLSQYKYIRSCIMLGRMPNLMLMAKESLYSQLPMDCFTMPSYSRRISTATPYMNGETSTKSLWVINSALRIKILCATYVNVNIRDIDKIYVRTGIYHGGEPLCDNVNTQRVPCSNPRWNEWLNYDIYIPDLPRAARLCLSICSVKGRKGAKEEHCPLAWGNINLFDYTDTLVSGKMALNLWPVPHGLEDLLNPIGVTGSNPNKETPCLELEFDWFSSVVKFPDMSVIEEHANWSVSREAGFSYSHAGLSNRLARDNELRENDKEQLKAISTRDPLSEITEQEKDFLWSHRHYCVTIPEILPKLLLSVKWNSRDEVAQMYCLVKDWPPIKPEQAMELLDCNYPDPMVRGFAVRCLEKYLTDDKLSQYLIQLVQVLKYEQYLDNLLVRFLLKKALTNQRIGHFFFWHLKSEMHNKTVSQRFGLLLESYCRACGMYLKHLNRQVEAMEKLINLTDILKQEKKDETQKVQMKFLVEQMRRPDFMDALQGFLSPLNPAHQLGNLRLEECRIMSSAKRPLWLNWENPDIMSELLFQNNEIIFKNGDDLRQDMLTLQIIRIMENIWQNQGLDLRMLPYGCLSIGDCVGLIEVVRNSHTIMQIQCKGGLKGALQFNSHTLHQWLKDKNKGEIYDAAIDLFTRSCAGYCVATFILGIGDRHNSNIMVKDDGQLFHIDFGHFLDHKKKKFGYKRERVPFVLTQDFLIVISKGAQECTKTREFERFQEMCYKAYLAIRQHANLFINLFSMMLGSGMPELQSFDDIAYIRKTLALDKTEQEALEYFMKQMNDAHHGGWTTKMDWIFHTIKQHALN
Nature of the assay: Solid-Phase Lipid Kinase p110α assay. Type of assay: biochemical. The following applies: recombinant truncated (ΔN 1-108) p110α, 7.5 ng/well; final 10 μM ATP; RT 2 hours.
Excerpt: [Determination of IC50 Values of Compounds in Kinase Assay of PI3Kα]
Phosphatidylinositol (Ptdlns) and phosphatidylserine (PtdSer) were purchased from DOOSAN SERDARY RESEARCH LABORATORIES (Toronto, Canada). Recombinant truncated forms (ΔN 1-108) of the human p110α and p110β subunits of PI3K with N-terminal His6-Tags were expressed in S. frugiperda 9 insect cells. Recombinant human PI3Kγ (full length human PI3K p1107 fused with a His6-tag at the C-terminus expressed in S. frugiperda 9 insect cells) was obtained from ALEXIS BIOCHEMICALS (#201-055-C010; San Diego, Calif.). [γ^33P]ATP and unlabeled ATP were purchased from AMERSHAM PHARMACIA BIOTECH (Buckinghamshire, UK) and ROCHE DIAGNOSTICS (Mannheim, Germany), respectively. Scintillation cocktails Ultima Gold™ scintillation cocktail were purchased from PERKIN ELMER. Maxisorp™ plates were purchased from NALGE NUNC INTERNATIONAL K.K. (Tokyo, Japan). All other chemicals not further specified were from WAKO PURE CHEMICALS (Osaka, Japan). […]
as §1, §2

Usually IC50 stands for the concentration that gives 50% inhibition.

T1 sequence (P42338 109-1070): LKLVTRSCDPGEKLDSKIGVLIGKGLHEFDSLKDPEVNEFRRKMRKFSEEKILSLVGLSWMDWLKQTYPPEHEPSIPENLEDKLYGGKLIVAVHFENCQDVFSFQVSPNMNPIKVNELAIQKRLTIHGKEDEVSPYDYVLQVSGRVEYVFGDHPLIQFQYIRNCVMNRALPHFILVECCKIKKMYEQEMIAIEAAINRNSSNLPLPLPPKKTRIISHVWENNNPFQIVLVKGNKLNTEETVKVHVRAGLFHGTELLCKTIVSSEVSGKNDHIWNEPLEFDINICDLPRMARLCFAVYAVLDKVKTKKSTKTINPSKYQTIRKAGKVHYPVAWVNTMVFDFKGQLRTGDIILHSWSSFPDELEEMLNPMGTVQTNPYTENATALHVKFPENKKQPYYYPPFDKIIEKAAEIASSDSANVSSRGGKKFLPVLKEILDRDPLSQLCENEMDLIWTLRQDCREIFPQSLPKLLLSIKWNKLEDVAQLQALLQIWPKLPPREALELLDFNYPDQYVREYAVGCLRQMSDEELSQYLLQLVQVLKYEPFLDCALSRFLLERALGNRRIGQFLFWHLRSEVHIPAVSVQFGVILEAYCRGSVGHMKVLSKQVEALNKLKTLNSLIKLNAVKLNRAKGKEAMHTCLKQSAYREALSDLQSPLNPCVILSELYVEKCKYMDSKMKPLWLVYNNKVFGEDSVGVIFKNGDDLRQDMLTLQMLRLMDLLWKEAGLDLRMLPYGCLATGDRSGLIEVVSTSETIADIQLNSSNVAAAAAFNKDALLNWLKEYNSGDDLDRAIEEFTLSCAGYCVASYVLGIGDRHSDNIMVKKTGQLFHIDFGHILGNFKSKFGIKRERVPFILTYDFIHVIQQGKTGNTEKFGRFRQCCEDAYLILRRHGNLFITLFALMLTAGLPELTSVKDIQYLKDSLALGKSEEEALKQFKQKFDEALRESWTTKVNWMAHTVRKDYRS

For `COc1c(OCCCN2CCOCC2=O)ccc2c1N=C(NC(=O)c1cnc(N)nc1)N1CCN=C21` [drawing 16, 2-amino-N-{7-methoxy-8-[3-(3-oxomorpholin-4-yl)propoxy]-2,3-dihydroimidazo[1,2-c]quinazolin-5-yl}pyrimidine-5-carboxamide], the IC50 in assay [1] worked out at 13 nM.
Turning to `COc1c(OCCCN2CCOCC2=O)ccc2c1N=C(NC(=O)c1cnc(N)nc1)N1CCN=C21` [drawing 15, 2-amino-N-{7-methoxy-8-[3-(3-oxomorpholin-4-yl)propoxy]-2,3-dihydroimidazo[1,2-c]quinazolin-5-yl}pyrimidine-5-carboxamide], the IC50 in assay [2] was found to be 0.7 nM.
